The source of these data is ChEMBL document CHEMBL3046898, “Synthesis and characterization of flurbiprofen hydrazide derivatives as potential anti-HCV, anticancer and antimicrobial agents” (2013).

Molecules are shown by their SMILES. The source made the active and inactive calls. The calls are words filed in the database; no cut-off is given here.

Experiment [1] deals with Pseudomonas aeruginosa. As to the kind of experiment: Antibacterial activity against Pseudomonas aeruginosa at 10 mg/ml after 24 hrs by disc diffusion method. It counts as functional, organism-based. (In general: Agar diffusion results depend on both activity and mobility in agar.)
The subject of experiment [2] is EKVX. Put plainly: Cytotoxicity against human EKVX assessed as cell growth at 10 uM after 48 hrs by SRB assay. The experiment is classed as functional. As to conditions: read-out: Activity.
The subject of experiment [3] is MDA-MB-468. Put plainly: Cytotoxicity against human MDA-MB-468 assessed as cell growth at 10 uM after 48 hrs by SRB assay. It counts as functional. As to conditions: MDA-MB-468, 48 h, read-out: Activity. (Sulforhodamine B stains cellular protein and so reports cell mass.)
Experiment [4] deals with SK-MEL-2. Put plainly: Cytotoxicity against human SK-MEL-2 assessed as cell growth at 10 uM after 48 hrs by SRB assay. As to conditions: SK-MEL-2, 48 h, read-out: Activity. It counts as functional.
Experiment [5] deals with Proteus vulgaris. Put plainly: Antibacterial activity against Proteus vulgaris at 10 mg/ml after 24 hrs by disc diffusion method. It counts as functional, organism-based.
In experiment [6] the test system is MDA-MB-435. As to the kind of experiment: Cytotoxicity against human MDA-MB-435 assessed as cell growth at 10 uM after 48 hrs by SRB assay. It counts as functional. As to conditions: MDA-MB-435, 48 h, read-out: Activity.
Experiment [7] relates to Staphylococcus cohnii. Put plainly: Antibacterial activity against Staphylococcus cohnii at 6.25 to 200 ug/ml after 24 hrs by microwell dilution assay. The experiment is classed as functional, organism-based.
The test system of experiment [8] is Escherichia coli. As to the kind of experiment: Antibacterial activity against Escherichia coli at 10 mg/ml after 24 hrs by disc diffusion method. The experiment is classed as functional, organism-based.

As for `CC(C(=O)NN1C(=O)CSC1c1ccc(C(F)(F)F)cc1)c1ccc(-c2ccccc2)c(F)c1` (stereo not drawn), the result in experiment [1], in experiment [5], in experiment [7] and in experiment [8] was inactive. In addition, the growth at 10 µM in experiment [2] came to 57.9%; in experiment [3], 59.4%; in experiment [4] it was 88.4%; in experiment [6] it was 66.7%.
